# According to article PMC4571851, “Arginine-Ornithine Antiporter ArcD Controls Arginine Metabolism and Interspecies Biofilm Development of Streptococcus gordonii” (The Journal of Biological Chemistry, 2015):
# Biological target: T1, ArcD (arginine-ornithine antiporter) (Streptococcus gordonii, UniProt A8AYK8)
# T1 construct: native full-length membrane transporter in intact wild-type S. gordonii cells; deletion mutant and complemented strain as controls
# Assay: inhibition of [3H]arginine uptake into intact wild-type cells
# Format: cell-based
# Conditions: whole cells in PBS, 20 s, 50 μM labelled arginine, unlabelled ornithine at 100-fold excess
# T1 sequence (A8AYK8 entry or part of it): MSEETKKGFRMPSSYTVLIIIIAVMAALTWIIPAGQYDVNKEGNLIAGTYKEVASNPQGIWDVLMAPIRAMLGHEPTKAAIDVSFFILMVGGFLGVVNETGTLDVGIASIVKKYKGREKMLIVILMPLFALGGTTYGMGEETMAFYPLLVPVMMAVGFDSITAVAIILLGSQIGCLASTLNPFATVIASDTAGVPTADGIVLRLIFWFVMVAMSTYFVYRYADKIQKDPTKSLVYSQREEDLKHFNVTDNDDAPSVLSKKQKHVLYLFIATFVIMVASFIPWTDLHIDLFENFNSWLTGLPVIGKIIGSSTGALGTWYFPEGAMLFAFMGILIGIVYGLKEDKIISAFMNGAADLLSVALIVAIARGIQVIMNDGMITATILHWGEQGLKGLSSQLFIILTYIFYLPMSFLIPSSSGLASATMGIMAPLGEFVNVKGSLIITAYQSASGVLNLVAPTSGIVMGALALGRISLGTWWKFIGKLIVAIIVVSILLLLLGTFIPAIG
smiles,measurement,value
NCCC[C@H](N)C(=O)O [Ornithine],% inhibition at 100-fold excess,Ornithine also had a moderate effect on the inhibition of arginine uptake
